In patent US5554653A, “Inhibitors of HIV protease useful for the treatment of AIDS” (Eli Lilly and Company, priority 1992, dated 1996):
Converted amounts (≈) assume the structure as drawn.

biological target: T1, HIV-1 protease (Human immunodeficiency virus type 1 group M subtype B, UniProt P04585); assay: biochemical; format: biochemical; details: read-out: Fluorescence Assay IC3
T1 construct: Purified HIV-1 protease was obtained as described above; made in house; host or cells: E. coli K12 L507/pHP10D (NRRL B-18560)
Description: C. Preparation of Protease Fraction
A culture of E. coli K12 L507/pHP10D was grown to mid-log phase at 32° C. in LB media containing 12.5 μg/ml tetracycline. The cultivation temperature was quickly elevated to 40° C. to induce gene expression, and the cells were allowed to grow for 2.5 hours at this temperature before the culture was quickly chilled on ice. The cells were centrifuged and the cell pellet was resuspended in 20 mL 50 mmol MES buffer (pH 6.0) containing 1 mmol EDTA, 1 mmol DTT, 1 mmol PMSF and 10% glycerol ("Buffer A"). Cells were lysed by sonication using a Fischer Model 300 Dismembrator and a microtip probe. Following centrifugation at 27,000×g, the supernatant was diluted to a total volume of 60 mL with Buffer A and loaded onto a 2.0×19 cm QAE-Sepharose column (1 mL/min, 4° C.), that had been equilibrated in Buffer A. The column was washed isocratically for 180 min and then eluted with a gradient eluent of 0-1.0M sodium chloride in Buffer A over 120 min. Enzymatic activity was measured by HPLC using the synthetic peptide SQNYPIV as described in Margolin et al., Biochem. Biophys. Res. Commun., 167, 554-560 (1990); the production of the p1 peptide (SQNY) was measured.
The active fractions were combined, made 1.2M in ammonium sulfate, and applied to a 2.0×18 cm hexyl agarose column that had been equilibrated in Buffer A containing 1.2M ammonium sulfate. The sample was loaded at a flow rate of 1 mL/min at 4° C., washed with the equilibration buffer for 240 min (1 mL/min) and then eluted using a reverse linear gradient of 1.2-0M ammonium sulfate in Buffer A for 120 min at the same flow rate. The column was then washed isocratically in Buffer A for 120 min.
The active fractions were combined, concentrated to 10 mL using an Amicon stirred cell with a YM-10 membrane and then applied to a MonoS cation exchange column (1.0×10 cm) that had been equilibrated in Buffer A. The sample was loaded at a flow rate of 1 mL/min at 25° C. After washing isocratically for 30 min, the protease was eluted using a linear gradient of 0-0.45M sodium chloride in Buffer A over 40 min. The column was washed isocratically in Buffer A containing 0.45M sodium chloride for 30 min.
The active fractions were combined and concentrated to 200 μL using an Amicon stirred cell and a YM-10 membrane and then the protease was applied to a Superose 6 size exclusion column equilibrated in Buffer A containing 0.1M sodium chloride.
The purified peptide was labeled with a fluorescent marker at the C-terminal end for use in the Pandex assay. N^α -Biotin-[…]OH SEQ ID NO:3. (1.206 g, 0.936 mmol) was dissolved in 100 mL of 0.1M sodium borate, pH 9.5. Then, a solution of 3 g (7.7 mmol) of fluorescein isothiocyanate in 15 mL dimethyl sulfoxide was added to the reaction mixture in 10 equal portions over two hours. The resulting mixture was allowed to react for one hour after the final addition. The solution was adjusted to pH 3 using 5N hydrochloric acid, resulting in the formation of a precipitate which was removed by centrifugation.
E. Fluorescence HIV-1 Protease Inhibitor Assay
The following buffers and solutions are used in the Fluorescence HIV-1 Protease Inhibitor Assay:
MES-ALB Buffer: 0.05M 4-morpholineethane
Avidin Coated 0.1% solution of Fluoricon
Beads Solution: Avidin Assay Particles
(Avidin conjugated to solid
polystyrene beads, 0.6-0.8
microns in diameter in TBSA
27 IU/mL of purified HIV-1
protease in MES-ALB buffer
(1 IU equals the amount of
enzyme required to hydrolyze
1 μmole of substrate per
To each well of a round bottom, 96-well plate is added 20 μL of the Enzyme Solution followed by 10 μL of the compound to be evaluated in a 20% aqueous dimethylsulfoxide solution. Purified HIV-1 protease was obtained as described above.

SMILES | IC3
CC(C)(C)NC(=O)c1ccccc1C[C@@H](O)[C@H](Cc1ccccc1)NC(=O)[C@@H](CSCc1ccccc1)NC(=O)OC(C)(C)C [Example 19A, [2R-(2R*, 3S*, 6S*)]-N-t-Butyl-2-[2-hydroxy-3-phenylmethyl-4-aza-5-oxo-6-N (t-butoxycarbonyl)amino-7-benzylthio]heptyl benzamide] | 1 µg/mL
CC(C)(C)NC(=O)c1ccccc1C[C@@H](O)[C@H](Cc1ccccc1)NC(=O)[C@@H](CSc1ccccc1)NC(=O)OC(C)(C)C [Example 22A, [2R-(2R *,3S*,6S*)]-N-t-Butyl-2-[2-hydroxy-3-phenylmethyl-4-aza-5-oxo-6-N(t-butoxycarbonyl)amino-7-phenylthio]heptyl benzamide] | 2 µg/mL
CC(C)(C)NC(=O)c1ccccc1C[C@@H](O)[C@H](Cc1ccccc1)NC(=O)[C@H](N)CSc1ccccc1 [Example 22B, [2R-(2R*,3S*,6S*)]-N-t-Butyl-2-[2-hydroxy-3-phenylmethyl-4-aza-5-oxo-6-amino-7-phenylthio]heptyl benzamide] | 1 µg/mL

same assay, conditions: read-out: Fluorescence Assay IC8

IC8 | SMILES
1 µg/mL | CC(=O)N[C@@H](CSc1ccccc1)C(=O)N[C@@H](Cc1ccccc1)[C@H](O)Cc1ccccc1C(=O)NC(C)(C)C [Example 20B, [2R-(2R*,3S*,6R*)]-N-t-Butyl-2-[2-hydroxy-3-phenylmethyl-4-aza-5-oxo-6-N(ethanoyl)amino-7-phenylthio]heptyl benzamide]

same assay, conditions: read-out: Fluorescence Assay IC16

IC16 | SMILES
1 µg/mL | CC(C)(C)NC(=O)c1ccccc1C[C@@H](O)[C@H](Cc1ccccc1)NC(=O)[C@H](N)CSCc1ccccc1 [Example 19B, [2R-(2R*, 3S*, 6S*)]-N-t-Butyl-2-[2-hydroxy-3-phenylmethyl-4-aza-5-oxo-6-amino-7-benzylthio]heptyl benzamide]

same assay, conditions: read-out: Fluorescence Assay IC45

IC45 | SMILES
1 µg/mL (≈ 1.95 µM) | CSCC[C@H](NC(C)=O)C(=O)N[C@@H](Cc1ccccc1)[C@H](O)Cc1ccccc1C(=O)NC(C)(C)C [Example 21, [2R-(2R*,3S*,6S*)]-N-t-Butyl-2-[2-hydroxy-3-phenylmethyl-4-aza-5-oxo-6-N(ethanoyl)amino-8-methylthio]octyl benzamide]

same assay, conditions: read-out: Fluorescence Assay IC50 (converted)

SMILES | IC50
CC(C)(C)NC(=O)c1ccccc1C[C@@H](O)[C@H](Cc1ccccc1)NC(=O)[C@@H](CSc1ccc2ccccc2c1)NS(C)(=O)=O [Example 17A, [2R-(2R*, 3S*, 6S*)]-N-t-Butyl-2-[2-hydroxy-3-phenylmethyl-4-aza-5-oxo-6-N (methylsulfonyl)amine-7-naphth-2-ylthio]heptyl benzamide] | 1.1 nM
CC(C)(C)NC(=O)c1ccccc1C[C@@H](O)[C@H](Cc1ccccc1)NC(=O)[C@@H](CS(=O)(=O)c1ccc2ccccc2c1)NS(C)(=O)=O [Example 17B, [2R-(2R*,3S*,6S*)]-N-t-Butyl-2-[2-hydroxy-3-phenylmethyl-4-aza-5-oxo-6-N(methylsulfonyl)amino-7-naphth-2-ylsulfonyl]heptyl benzamide] | 0.191 nM
CC(=O)N[C@H](CSCc1ccccc1)C(=O)N[C@@H](Cc1ccccc1)[C@H](O)Cc1ccccc1C(=O)NC(C)(C)C [Example 18A, [2R-(2R*, 3S*, 6S*)]-N-t-Butyl-2-[2-hydroxy-3-phenylmethyl-4-aza-5-oxo-6-N (ethanoyl)amino-7-benzylthio]heptyl benzamide] | 12.9 nM
CC(=O)N[C@H](CS(=O)(=O)Cc1ccccc1)C(=O)N[C@@H](Cc1ccccc1)[C@H](O)Cc1ccccc1C(=O)NC(C)(C)C [Example 18B, [2R-(2R*, 3S*, 6S*)]-N-t-Butyl-2-[2-hydroxy-3-phenylmethyl-4-aza-5-oxo-6-N(ethanoyl)amino-7-benzylsulfonyl]heptyl benzamide] | 55.9 nM
CC(C)(C)NC(=O)c1ccccc1C[C@@H](O)[C@H](Cc1ccccc1)NC(=O)[C@@H](CSCc1ccccc1)NS(C)(=O)=O [Example 19C, [2R-(2R*,3S*,6S*)]-N-t-Butyl-2-[2-hydroxy-3-phenylmethylyl-4-aza-5-oxo-6-N(methylsulfonyl)amino-7-benzylthio]heptyl benzamide] | 3.6 nM
CC(C)(C)NC(=O)c1ccccc1C[C@@H](O)[C@H](Cc1ccccc1)NC(=O)[C@@H](C[S+]([O-])Cc1ccccc1)NS(C)(=O)=O (stereo partly drawn) [Example 19D, [2R-(2R*,3S*,6S*)]-N-t-Butyl-2-[2-hydroxy-3-phenylmethyl-4-aza-5-oxo-6-N(methylsulfonyl)amine-7-benzylsulfinyl]heptyl benzamide] | 2.23 nM
CC(C)(C)NC(=O)c1ccccc1C[C@@H](O)[C@H](Cc1ccccc1)NC(=O)[C@@H](CS(=O)(=O)Cc1ccccc1)NS(C)(=O)=O [Example 19E, [2R-(2R*,3S*,6S*)]-N-t-Butyl-2-[2-hydroxy-3-phenylmethyl-4-aza-5-oxo-6-N(methylsulfonyl)amino-7-benzylsulfonyl]heptyl benzamide] | 4.66 nM

Continued, values first:

IC50 | SMILES
4.88 nM | CC(=O)N[C@H](CS(=O)(=O)c1ccccc1)C(=O)N[C@@H](Cc1ccccc1)[C@H](O)Cc1ccccc1C(=O)NC(C)(C)C [Example 20C, [2R-(2R*,3S*,6S*)]-N-t-Butyl-2-[2-hydroxy-3-phenylmethyl-4-aza-5-oxo-6-N(ethanoyl)amino-7-phenylsulfonyl]heptyl benzamide]
18.9 nM | CC(C)(C)NC(=O)c1ccccc1C[C@@H](O)[C@H](Cc1ccccc1)NC(=O)[C@@H](CSc1ccccc1)NS(C)(=O)=O [Example 22C, [2R-(2R*,3S*,6S*)]-N-t-Butyl-2-[2-hydroxy-3-phenylmethyl-4-aza-5-oxo-6-N(methylsulfonyl)amino-7-phenylthio]heptyl benzamide]
2.54 nM | CC(C)(C)NC(=O)c1ccccc1C[C@@H](O)[C@H](Cc1ccccc1)NC(=O)[C@@H](CS(=O)(=O)c1ccccc1)NS(C)(=O)=O [Example 22D, [2R-(2R*,3S*,6S*)]-N-t-Butyl-2-[2-hydroxy-3-phenylmethyl-4-aza-5-oxo-6-N(methylsulfonyl)amino-7-phenylsulfonyl]heptyl benzamide]
0.978 nM | CC(C)(C)NC(=O)c1ccccc1C[C@@H](O)[C@H](Cc1ccccc1)NC(=O)[C@@H](C[S+]([O-])c1ccccc1)NS(C)(=O)=O (stereo partly drawn) [Example 22E, [2R-(2R*,3S*,6S*)]-N-t-Butyl-2-[2-hydroxy-3-phenylmethyl-4-aza-5-oxo-6-N(methylsulfonyl)amino-7-phenylsulfinyl]heptyl benzamide]
25.9 nM | CC(C)(C)NC(=O)c1ccccc1C[C@@H](O)[C@H](Cc1ccccc1)NC(=O)[C@@H](CSc1ccc2ccccc2n1)NS(C)(=O)=O [Example 23C, [2R-(2R*,3S*,6S*)]-N-t-Butyl-2-[2-hydroxy-3-phenylmethyl-4-aza-5-oxo-6-N(methylsulfonyl)amino-7-quinolin-2-ylthio]heptyl benzamide]
1.18 nM | CC(C)(C)NC(=O)c1ccccc1C[C@@H](O)[C@H](Cc1ccccc1)NC(=O)[C@@H](CS(=O)(=O)c1ccc2ccccc2n1)NS(C)(=O)=O [Example 23D, [2R-(2R*,3S*,6S*)]-N-t-Butyl-2-[2-hydroxy-3-phenylmethyl-4-aza-5-oxo-6-N(methylsulfonyl)amino-7-quinolin-2-ylsulfonyl]heptyl benzamide]
4.06 nM | CC(C)(C)NC(=O)c1ccccc1C[C@@H](O)[C@H](Cc1ccccc1)NC(=O)[C@@H](C[S+]([O-])c1ccc2ccccc2n1)NS(C)(=O)=O (stereo partly drawn) [Example 23E, [2R-(2R*,3S*,6S*)]-N-t-Butyl-2-[2-hydroxy-3-phenylmethyl-4-aza-5-oxo-6-N(methylsulfonyl)amino-7-quinolin-2-ylsulfinyl]heptyl benzamide]
